In patent publication US20030166673A1, “Medicines for the prevention and treatment of neurodegenerative diseases” (priority 2001, published 2003):
Where “and” joins values, the source holds several entries; their conditions need not be identical. Equal entries are not always repeated.

Test system: vacuolized neurons in the PC/RS cortex (MK-801-induced neuronopathy)
Assay: Inhibitory effect on MK-801-induced neurodegeneration (number of vacuolized neurons)
Type: in vivo, mice (Std-ddY male)
Description: The pharmacological test was carried out according to the method of D. F. Wozniak, et al. [Brain Research, Vol. 707, pp 165-178 (1996)].
The cerebrum was cut transversely from the anterior termination at approximately 4 mm to the posterior termination, and then embedded in cold polymerized resin (Technovit7100, manufactured by Kulzer in Germany). The slices containing the PC/RS cortex were obtained at four Anterior-Posterior levels at intervals of 300 μm from the exposed section of the block, and at each level two slices (3 μm in thickness) were consecutively obtained. The histological change (on Hematoxylin and eosin stain specimen) and the number of vacuolized neurons (on Nissl stain specimen) were observed by a light microscope for each 4 slices, respectively.

[1] = individual mouse, Compound A 1 mg/kg p.o. 30 min before MK-801 1 mg/kg s.c., 5 h after MK-801, PC/RS cortex

With `COc1cccc(-c2nccc3[nH]c(=O)c(-c4noc(C)n4)cc23)c1` [Compound A, 3-(5-Methyl-1,2,4-oxadiazol-3-yl)-5-(3-methoxyphenyl)-1,6-naphthyridin-2(1H)-one] the “Vacuolization, Mean(/slice) Group” value (group mean of three mice, Compound A 1 mg/kg p.o. + MK-801 1 mg/kg s.c., 5 h) was 4.3 /slice, the “Vacuolization, Slice No. 1” value [1] was 0 (2×) and 20 and the “Vacuolization, Slice No. 2” value [1] was 0 (2×) and 12. For the same compound, the “Vacuolization, Slice No. 3” value [1] was 0 and 10 and 2, the “Vacuolization, Slice No. 4” value [1] was 0 and 5 and 2 and the “Vacuolization, Mean(/slice) Individual” value (mean of 4 slices per mouse, Compound A 1 mg/kg p.o. + MK-801 1 mg/kg s.c., 5 h) was 0.0 /slice and 11.8 /slice and 1.0 /slice. For the same compound, the “retardation or inhibition of neurodegeneration in the PC/RS cortex induced by MK-801 (in words)” value (mice, Compound A 1 mg/kg p.o. before MK-801 1 mg/kg s.c.) was “potent retardation or inhibition of neurodegeneration”.
